According to PubChem BioAssay AID1996:
Values after ≈ are worked out from the molar mass of the structure shown.

conditions: buffer; pH 7.4; 200.0 µM

| SMILES | solubility kinetic |
| --- | --- |
| COc1cc(C(=O)OCC#N)ccc1OCc1c(C)noc1C | 4 µg/mL (≈ 12.6 µM) |
| COc1ccc(OC)c(N2C(=O)c3cccnc3C2=O)c1 | > 42.6 µg/mL |
| CC1CCC(NC(=O)CN2C(=O)c3ccccc3S2(=O)=O)CC1 (configuration not stated) | > 50.5 µg/mL |
| O=C1NC(=S)N(C(=O)c2ccc(F)cc2)/C1=C/c1cccnc1 | 2 µg/mL (≈ 6.11 µM) |
| CN(C)CC(O)CN(c1ccccc1)c1ccccc1 (configuration not stated) | > 40.6 µg/mL |
| COC(=O)c1ccc(NC(=O)Nc2ccccc2C)cc1 | 4.3 µg/mL (≈ 15.1 µM) |
| CN(CCOc1ccc(F)cc1)Cc1ccccc1.O=C(O)C(=O)O | 34.6 µg/mL |
| NC(=O)c1ccc(NC(=O)COC(=O)CC23CC4CC(CC(Br)(C4)C2)C3)cc1 | > 67.4 µg/mL |
| COc1ccc(C(=O)OCC(=O)NCCc2ccc(F)cc2)cc1S(=O)(=O)N1CCOCC1 | > 72.1 µg/mL |
| CN1CCC(O)(c2cccs2)C(C(=O)c2cccs2)C1 (configuration not stated) | 42.1 µg/mL (≈ 137 µM) |
| COc1cccc(Oc2nc(N)ncc2[N+](=O)[O-])c1 | 32.3 µg/mL (≈ 123 µM) |
| O=C(Nc1ccc(NC(=O)c2ccccc2F)cn1)c1ccco1 | 8.4 µg/mL (≈ 25.8 µM) |
| Cn1c(C(=O)O)c(S(=O)(=O)c2ccc(Cl)cc2)c2ccccc21 | 51.8 µg/mL (≈ 148 µM) |
| O=C(Cc1ccccc1)NCCc1c[nH]c2ccccc12.O=C(O)C(=O)O | 47.8 µg/mL |
| CCOc1ccc(CO/N=C/c2c(C)[nH]c(=O)[nH]c2=O)cc1 | 5.8 µg/mL (≈ 19.1 µM) |
| Cc1nn(CCCC(=O)Nc2cccnc2)c(C)c1[N+](=O)[O-] | > 45.5 µg/mL |
| C=CCSc1nsc(NC(=O)Nc2cccc(C(C)=O)c2)n1 | 1.9 µg/mL (≈ 5.68 µM) |
| CCSc1nc2sc3c(c2c(=O)n1-c1ccc(C)cc1)CCN(C)C3 | 35.6 µg/mL (≈ 95.8 µM) |
| COc1ccc(Cl)cc1NC(=O)COC(=O)Cc1cc(OC)c(OC)c(OC)c1 | 46.6 µg/mL (≈ 110 µM) |
| COc1ccc(CNC(=O)COC(=O)c2cc3ccccc3cc2O)cc1OC | 25.9 µg/mL (≈ 65.5 µM) |
| O=c1ccc2cc(S(=O)(=O)NCCCc3ccccc3)ccc2[nH]1 | 1 µg/mL (≈ 2.92 µM) |
| O=C(c1cc2cc(F)ccc2[nH]1)N1CCC2(CC1)OCCO2 | 20.2 µg/mL (≈ 66.4 µM) |
| O=c1[nH]c2c(Br)cnc([N+](=O)[O-])c2[nH]1 | > 38.9 µg/mL |
| COc1ccc(Br)cc1S(=O)(=O)NCCc1cccs1 | 34.4 µg/mL (≈ 91.4 µM) |

| SMILES | solubility kinetic |
| --- | --- |
| Cn1c(-c2ccccn2)[n+](C)c2ccccc21.[Cl-] | > 39 µg/mL |
| Cc1c(O)nc2ccccn2c1=O | > 26.4 µg/mL |
| O=C(c1ccc(Cn2cc([N+](=O)[O-])cn2)o1)N1CCCCCC1 | > 47.7 µg/mL |
| COc1ccc(C(=O)C(C)OC(=O)c2sc(C)nc2C)cc1 (configuration not stated) | 35.8 µg/mL (≈ 112 µM) |
| CC(C)(C)c1ccc(OCC(=O)Nc2ccncc2)c(Br)c1 | 10.4 µg/mL (≈ 28.6 µM) |
| COCCN(C(=S)Nc1ccccc1C)C(C)c1ccco1 (configuration not stated) | 45.7 µg/mL (≈ 144 µM) |
| COc1ccccc1Cc1nc(-c2cccnc2)no1 | 31.9 µg/mL (≈ 119 µM) |
| Cl.c1ccc(SCCOCCN2CCOCC2)cc1 | 43.4 µg/mL |
| COc1cc(OC)c(C(=O)NC23CC4CC(CC(C4)C2)C3)cc1OC | 7.1 µg/mL (≈ 20.6 µM) |
| CCOC(=O)Cn1cc(C#N)c2ccccc21 | > 34.2 µg/mL |
| O=C(CCc1c[nH]c2ccccc12)Nc1ncccc1O | > 42.2 µg/mL |
| C[C@H]1O[C@@H](n2cc(F)c(=O)[nH]c2=O)[C@H](O)[C@@H]1O | > 36.9 µg/mL |
| CN(CC(=O)Nc1ccccc1Cl)CC(=O)Nc1cccc2ccccc12 | 45.3 µg/mL (≈ 119 µM) |
| CN1CCN(CCCCOc2cccc3ccccc23)CC1.Cl | > 50.2 µg/mL |
| O=C(Cc1ccc(Br)cc1)Nc1nc2ccccc2[nH]1 | 2.4 µg/mL (≈ 7.27 µM) |
| Cc1ccc(C(=O)NC(C)c2ccc(-n3ccnc3)cc2)c(C)c1 (configuration not stated) | 46 µg/mL (≈ 144 µM) |
| O=c1c(Cc2ccc(Cl)cc2)c(O)ccn1Cc1cccs1 | 4.6 µg/mL (≈ 13.9 µM) |
| CCOC(=O)c1ccc(NC(=O)c2cccnc2)cc1 | > 40.5 µg/mL |
| CC(=O)c1ccc(N2CCN(C(=O)Nc3ccc(Cl)cc3)CC2)cc1 | 1.3 µg/mL (≈ 3.63 µM) |
| O=C1C(Cc2ccc(O)cc2)NC(=S)N1Cc1ccccc1 (configuration not stated) | > 46.9 µg/mL |
| Cc1ccc(C)n1-c1ccc(C(=O)NCc2ccncc2)cc1 | 38.3 µg/mL (≈ 125 µM) |
| O=C(O)CN1CCCCCC1=O | > 25.7 µg/mL |
| O=C(CCS(=O)(=O)c1ccc(Cl)cc1)NC1CCCC1 | > 47.4 µg/mL |
